This passage reports T/C results from PubChem BioAssay AID248 (DTP/NCI, 2004).

In the assay the test system is L1210 leukemia ip in BDF1 mice, survival T/C. As to the kind of experiment: NCI In Vivo Anticancer Drug Screen. Data for tumor model L1210 Leukemia (intraperitoneal) in B6D2F1 (BDF1) mice. The settings on record: endpoint: mean survival time, higher = longer survival. In a few lines: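 Antitumor effect is assessed in tumor-bearing animals. Survival in the compound arm is compared with a vehicle-dosed control arm and expressed as their quotient.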

Where [1] appears, read: dose: 100.0 mg/kg/injection, schedule: Q01DX001 (ip), vehicle: saline.
Where [2] appears, read: dose: 200.0 mg/kg/injection, schedule: Q01DX001 (ip), vehicle: saline.
The mark [3] stands for this setting: dose: 400.0 mg/kg/injection, schedule: Q01DX001 (ip), vehicle: saline.
[4] abbreviates: dose: 100.0 mg/kg/injection, schedule: Q04DX003 (ip), vehicle: saline with Tween-80.
Setting [5] is: dose: 200.0 mg/kg/injection, schedule: Q04DX003 (ip), vehicle: saline with Tween-80.
Setting [6] is: dose: 400.0 mg/kg/injection, schedule: Q04DX003 (ip), vehicle: saline with Tween-80.
The mark [7] stands for this setting: dose: 100.0 mg/kg/injection, schedule: Q01DX009 (ip), vehicle: saline with Tween-80.
[8] abbreviates: dose: 200.0 mg/kg/injection, schedule: Q01DX009 (ip), vehicle: saline with Tween-80.
Setting [9] is: dose: 400.0 mg/kg/injection, schedule: Q01DX009 (ip), vehicle: saline with Tween-80.
The mark [10] stands for this setting: dose: 100.0 mg/kg/injection, schedule: Q04DX002 (ip), vehicle: saline with Tween-80.
Where [11] appears, read: dose: 100.0 mg/kg/injection, schedule: Q04DX003 (ip), vehicle: Klucel (hydroxypropylcellulose) (HPC).
[12] abbreviates: dose: 200.0 mg/kg/injection, schedule: Q04DX003 (ip), vehicle: Klucel (hydroxypropylcellulose) (HPC).
Where [13] appears, read: dose: 400.0 mg/kg/injection, schedule: Q04DX003 (ip), vehicle: Klucel (hydroxypropylcellulose) (HPC).

Toxic doses and inconclusive results are not listed.

For `Cc1ccc(S(=O)(=O)N2CCN(S(=O)(=O)c3ccc(C)c([N+](=O)[O-])c3)CC2)cc1[N+](=O)[O-]`, the T/C (dose: 3.12 mg/kg/injection, schedule: Q01DX009 (ip), vehicle: clinical formulation) is 103 % of control; the T/C (dose: 6.25 mg/kg/injection, schedule: Q01DX009 (ip), vehicle: clinical formulation) was 100 % of control; the T/C (dose: 6.25 mg/kg/injection, schedule: Q04DX003 (ip), vehicle: clinical formulation) was 103 % of control; the T/C (dose: 12.5 mg/kg/injection, schedule: Q01DX009 (ip), vehicle: clinical formulation) is 107 % of control; the T/C (dose: 12.5 mg/kg/injection, schedule: Q04DX003 (ip), vehicle: clinical formulation) was 108 % of control; the T/C (dose: 25.0 mg/kg/injection, schedule: Q01DX009 (ip), vehicle: clinical formulation) is 115 % of control. Besides, the T/C is 116 % of control (dose: 25.0 mg/kg/injection, schedule: Q04DX003 (ip), vehicle: clinical formulation); 95 % of control (dose: 50.0 mg/kg/injection, schedule: Q01DX009 (ip), vehicle: clinical formulation); 124 % of control (dose: 50.0 mg/kg/injection, schedule: Q04DX003 (ip), vehicle: clinical formulation).
As to `O=C1Nc2ccc(C(=O)O)c(O)c2C1=O`, the T/C reads like this: (dose: 50.0 mg/kg/injection, schedule: Q01DX001 (ip), vehicle: Klucel (hydroxypropylcellulose) (HPC)) 112 % of control; (dose: 100.0 mg/kg/injection, schedule: Q01DX001 (ip), vehicle: Klucel (hydroxypropylcellulose) (HPC)) 112 % of control; (dose: 200.0 mg/kg/injection, schedule: Q01DX001 (ip), vehicle: Klucel (hydroxypropylcellulose) (HPC)) 102 % of control.
Turning to `CC1CCCC(C)C1O` (stereo not given), the T/C runs as follows: under setting [1], 103 % of control; under setting [2], 101 % of control; under setting [3], 103 % of control.
Turning to `C1=C(c2ccccc2)c2ccccc2C1(c1ccccc1)c1ccccc1`, the T/C reads like this: under setting [4], 97 % of control; under setting [5], 94 % of control; under setting [6], 94 % of control.
For `O=C(O)C1CC1Oc1ccccc1` (stereo not given), the T/C is, setting by setting: under setting [7], 96 % of control; under setting [4], 110 % of control; under setting [8], 92 % of control; under setting [5], 108 % of control; under setting [9], 87 % of control; under setting [6], 106 % of control.
Turning to `CC(=O)Nc1ccc(Cl)cc1`, the T/C is 101 % of control (dose: 50.0 mg/kg/injection, schedule: Q01DX001 (ip), vehicle: other); 98 % of control (dose: 100.0 mg/kg/injection, schedule: Q01DX001 (ip), vehicle: other); 101 % of control (dose: 200.0 mg/kg/injection, schedule: Q01DX001 (ip), vehicle: other); 106 % of control (dose: 400.0 mg/kg/injection, schedule: Q01DX001 (ip), vehicle: other).
With `c1ccc(CN(CCNc2ccccc2)c2ccccc2)cc1`, the T/C reads like this: (dose: 50.0 mg/kg/injection, schedule: Q01DX009 (ip), vehicle: water) 97 % of control; (dose: 100.0 mg/kg/injection, schedule: Q01DX009 (ip), vehicle: water) 94 % of control.
Consider `CC[C@@](O)(C(=O)NC)c1cc2n(c(=O)c1CO)Cc1cc3ccccc3nc1-2`, for which the T/C is, setting by setting: (dose: 2.3 mg/kg/injection, schedule: Q01DX015 (ip), vehicle: saline) 155 % of control; (dose: 3.5 mg/kg/injection, schedule: Q01DX015 (ip), vehicle: saline) 172 % of control; (dose: 4.0 mg/kg/injection, schedule: Q01DX001 (ip), vehicle: saline) 110 % of control; (dose: 5.3 mg/kg/injection, schedule: Q01DX015 (ip), vehicle: saline) 102 % of control.
In the case of `C=CCOc1cccc(C(C)(C)C)c1`, the T/C is, setting by setting: (dose: 75.0 mg/kg/injection, schedule: Q04DX003 (ip), vehicle: saline with Tween-80) 103 % of control; (dose: 150.0 mg/kg/injection, schedule: Q04DX003 (ip), vehicle: saline with Tween-80) 101 % of control; (dose: 300.0 mg/kg/injection, schedule: Q04DX003 (ip), vehicle: saline with Tween-80) 92 % of control.
Take `CSCC(O)CSC`: the T/C reads like this: under setting [10], 90 % of control; (dose: 200.0 mg/kg/injection, schedule: Q04DX002 (ip), vehicle: saline with Tween-80) 93 % of control; (dose: 400.0 mg/kg/injection, schedule: Q04DX002 (ip), vehicle: saline with Tween-80) 87 % of control.
Consider `NCC(=O)Nc1ccc(Cl)cc1C(=O)c1ccc[nH]1`, for which the T/C reads like this: under setting [7], 93 % of control; under setting [8], 87 % of control; under setting [9], 90 % of control.
As to `COC(=O)c1cccc(F)c1C(=O)c1ccc2ccccc2c1`, the T/C was 100 % of control under setting [11], 91 % of control under setting [12] and 97 % of control under setting [13].
For `COc1cc(NC=O)c2ncccc2c1`, the T/C (dose: 50.0 mg/kg/injection, schedule: Q04DX003 (ip), vehicle: Klucel (hydroxypropylcellulose) (HPC)) was 97 % of control; the T/C under setting [11] was 100 % of control; the T/C under setting [12] was 88 % of control.
Regarding `COc1cccc([Si](C)(C)[Si](C)C)c1`, the T/C by setting is: (dose: 100.0 mg/kg/injection, schedule: Q04DX003 (ip), vehicle: saline) 98 % of control; (dose: 200.0 mg/kg/injection, schedule: Q04DX003 (ip), vehicle: saline) 110 % of control; (dose: 400.0 mg/kg/injection, schedule: Q04DX003 (ip), vehicle: saline) 96 % of control.
As to `Oc1ccc(C(c2ccc(O)c(Br)c2)c2ccccn2)cc1Br`, the T/C reads like this: under setting [11], 100 % of control; under setting [12], 98 % of control; under setting [13], 96 % of control.
For `CC(C)=NC(=O)NO.[Cl][Mn][Cl]`, the T/C runs as follows: (dose: 37.5 mg/kg/injection, schedule: Q01DX009 (ip), vehicle: saline) 105 % of control; (dose: 75.0 mg/kg/injection, schedule: Q01DX001 (ip), vehicle: saline) 91 % of control; (dose: 75.0 mg/kg/injection, schedule: Q01DX009 (ip), vehicle: saline) 111 % of control; (dose: 150.0 mg/kg/injection, schedule: Q01DX001 (ip), vehicle: saline) 104 % of control; (dose: 150.0 mg/kg/injection, schedule: Q01DX009 (ip), vehicle: saline) 105 % of control.
Regarding `CC(C)(C)NC(=O)NCc1cccnc1`, the T/C is 97 % of control (dose: 100.0 mg/kg/injection, schedule: Q01DX009 (ip), vehicle: saline sonified); 100 % of control (dose: 100.0 mg/kg/injection, schedule: Q04DX003 (ip), vehicle: saline sonified); 100 % of control (dose: 200.0 mg/kg/injection, schedule: Q01DX009 (ip), vehicle: saline sonified); 87 % of control (dose: 200.0 mg/kg/injection, schedule: Q04DX003 (ip), vehicle: saline sonified); 105 % of control (dose: 400.0 mg/kg/injection, schedule: Q01DX009 (ip), vehicle: saline sonified); 94 % of control (dose: 400.0 mg/kg/injection, schedule: Q04DX003 (ip), vehicle: saline sonified).
For `CC(C)COC(=O)CCCCC(=O)OCC(C)C`, the T/C by setting is: under setting [4], 113 % of control; under setting [5], 107 % of control; under setting [6], 110 % of control.
For `CCCCC(CC)COc1ccc(N=C(N)N=C(N)N)cc1` (stereo not given), under setting [10], the T/C was 105 % of control.
As to `COc1ccc(C(=O)/C=C/c2ccccc2)c(O)c1`, the T/C reads like this: (dose: 50.0 mg/kg/injection, schedule: Q01DX001 (ip), vehicle: saline) 98 % of control; under setting [1], 102 % of control; under setting [2], 102 % of control; under setting [3], 98 % of control.
Take `c1ccc2cc(N=Nc3ccc4ccccc4c3)ccc2c1`: the T/C is 98 % of control (dose: 100.0 mg/kg/injection, schedule: Q01DX009 (ip), vehicle: Klucel (hydroxypropylcellulose) (HPC)); 95 % of control under setting [11]; 97 % of control (dose: 200.0 mg/kg/injection, schedule: Q01DX009 (ip), vehicle: Klucel (hydroxypropylcellulose) (HPC)); 92 % of control under setting [12]; 102 % of control (dose: 400.0 mg/kg/injection, schedule: Q01DX009 (ip), vehicle: Klucel (hydroxypropylcellulose) (HPC)); 94 % of control under setting [13].
